The text below walks through data of patent publication US9248203B2, “Fluorescent imaging with substituted cyanine dyes” (LI-COR, INC., priority 2010, dated 2016).

Data set [1] is described as follows: In vivo clearance, Pearl Impulse imaging. Set-up: species or system nude mice. The settings on record: for Total: 800 channel; for clearance in vivo (clearance series): FIG. 9, 1 nmole injected, imaged over 24 h. As for the experimental part: Two nude mice were injected with 1 nmole of either compound 16 or IRDye 800CW carboxylate. They were then imaged longitudinally over the next 24 h with the Pearl Impulse imaging system. The results are presented in FIG. 9: in vivo clearance in nudes (FIG. 9A), whole body dorsal views (FIG. 9B), and the rate of clearance (FIG. 9C). The clearance data is presented below in Table 4.

A short description of data set [2]: Summary of photophysical properties (absorption, emission, relative fluorescence, quantum yield). It is filed as physicochemical. Conditions: head is a formula, relative to IRDye 800 CW.
For data set [3] the following is noted: value used for the standard IRDye 800 CW; cited from earlier work.
For the next data set, the system named is U87GM cells. As to the kind of experiment: Immunocytochemical binding, blocking and dye control assay, U87GM. It is filed as cell-based. Conditions: dye control up to 5 μM, FIG. 7C. As for the experimental part: RGD (Arg-Gly-Asp), the recognition motif used to bind the integrin receptors, was labeled with compound 17. The characteristics of RGD/17 conjugate and the analogous dye carboxylate 16 were evaluated in a cell-based assay.
Compound 17 was conjugated to the peptide RGD by the general procedure set forth in Example 32.
The cell lines U87GM and PC3MLN4 were assayed. Assays included binding, blocking, and carboxylate control. Serial dilutions of compound 16 were prepared at concentrations of 200-6.25 nM. Blocking was accomplished with unlabeled RGD at concentrations of 10-0.31 μM with the addition of 200 nM compound 17-RGD conjugates in all test wells. The compound 16 was evaluated as a dye control for non-specific binding at relatively high levels from 5-0.16 μM with U87GM cells and 1-0.002 μM with PC3 cells.
In the second round of testing with U87GM cells, concentrations of unlabeled RGD and compound 17/RGD were increased (FIGS. 8A and 8B). Binding assay concentrations utilized 0.8-400 nM while the blocking assay used 0.06-30 μM unlabeled RGD with an addition of 200 nM 17/RGD.

A short description of data set [4]: Absorption wavelength of the cyanine dyes in methanol (halo substitution effect). It is filed as physicochemical. The settings on record: Table 2. An excerpt:
Design Principle: We analyzed the properties of a dye scaffold and related compounds and the corresponding substitution effects on the excitation and emission wavelengths. The small size of fluorine is unlikely to produce steric effects, therefore, we explored the electronic effects of fluorine and related substitutions. The Hammett equation (σ-value) is an important tool to understand the electronic effects of the substituents, therefore, we explored the correlation of the wavelength (λMeOH) and the σ-value (vide infra): […]

For the compound “IRDye 800CW carboxylate [reference compound]”, the Total in data set [1] (3 min) worked out at 114295.49; in data set [1] (19 min), 306555.97; in data set [1] (47 min) it was 291381.69; in data set [1] (74 min), 272408.13; in data set [1] (192 min), 154950.09; in data set [1] (278 min), 102698.54. Besides, in data set [1] (1439 min), the Total is on record as 2336.87. Moreover, in data set [1], the “clearance in vivo (clearance series)” value is listed as “good clearance in vivo”.

On to `CC1(C)C(/C=C/C2=C(c3cccc(F)c3F)C(=C/C=C3/N(CCCCS(=O)(=O)[O-])c4ccc(S(=O)(=O)[O-])cc4C3(C)C)/CCC2)=[N+](CCCCS(=O)(=O)[O-])c2ccc(S(=O)(=O)[O-])cc21.[Na+].[Na+].[Na+]` [Compound 62k], for which, in data set [2], the “[formula] Odyssey” value is reported as 104% and the “[formula] Fluorimeter” value is on record as 100%.

With `CC1(C)C(=CC=C2CCCC(C=CC3=[N+](CCCCCC(=O)[O-])c4ccc(S(=O)(=O)[O-])cc4C3(C)C)=C2Oc2ccc(S(=O)(=O)[O-])cc2)N(CCCCS(=O)(=O)[O-])c2ccc(S(=O)(=O)[O-])cc21.[Na+].[Na+].[Na+].[Na+]` [IRDye 800CW, reference compound], the “Quantum Yield of the standard” value in data set [3] is given as 0.07. Moreover, in data set [2], the “[formula] Odyssey” value turned out to be 100% and the “[formula] Fluorimeter” value turned out to be 100%.

For `CC1(C)C(/C=C/C2=C(c3c(F)cc(F)cc3F)C(=C/C=C3/N(CCCS(=O)(=O)[O-])c4ccc(S(=O)(=O)[O-])cc4C3(C)C)/CC(C(=O)O)C2)=[N+](CCCS(=O)(=O)[O-])c2ccc(S(=O)(=O)[O-])cc21.[Na+].[Na+].[Na+]` (stereo not drawn) [Compound 16], the Total in data set [1] (1 min) is recorded as 109682.80; in data set [1] (17 min), 282046.59; in data set [1] (45 min), 286573.94; in data set [1] (71 min), 266647.59; in data set [1] (190 min) it was 139736.97; in data set [1] (276 min) it was 76493.30. For the same compound, the Total in data set [1] (1435 min) is listed as 1652.69. The “clearance in vivo (clearance series)” value in data set [1] was “good clearance in vivo”. Also, the “concentration above which relatively high non-specific binding of the dye alone was noted” value in the data set on U87GM cells was “above 2 μM”.

`CC1(C)C(/C=C/C2=C(c3cccc(F)c3F)C(=C/C=C3/N(CCCCS(=O)(=O)[O-])c4ccc(S(=O)(=O)[O-])cc4C3(C)C)/CC(C(=O)O)C2)=[N+](CCCCS(=O)(=O)[O-])c2ccc(S(=O)(=O)[O-])cc21.[Na+].[Na+].[Na+]` (stereo not drawn) [Compound 63a]: the λMeOH in data set [4] was 770 nm.

In data set [4], `CCCCOc1c(F)c(F)c(C2=C(/C=C/C3=[N+](CCCCS(=O)(=O)[O-])c4ccc(S(=O)(=O)[O-])cc4C3(C)C)CCC/C2=C\C=C2\N(CCCCS(=O)(=O)[O-])c3ccc(S(=O)(=O)[O-])cc3C2(C)C)c(F)c1F.[Na+].[Na+].[Na+]` [Compound 24] returned a λMeOH of 790 nm.
